# Measured values published in ChEMBL document CHEMBL5291721, “A preclinical secondary pharmacology resource illuminates target-adverse drug reaction associations of marketed drugs” (Nat Commun, 2023).
# What was measured:
# [1] = target: T1, Alpha-2A adrenergic receptor (Homo sapiens, UniProt P08913); type: functional, cell-based
# T1 sequence (P08913 whole entry): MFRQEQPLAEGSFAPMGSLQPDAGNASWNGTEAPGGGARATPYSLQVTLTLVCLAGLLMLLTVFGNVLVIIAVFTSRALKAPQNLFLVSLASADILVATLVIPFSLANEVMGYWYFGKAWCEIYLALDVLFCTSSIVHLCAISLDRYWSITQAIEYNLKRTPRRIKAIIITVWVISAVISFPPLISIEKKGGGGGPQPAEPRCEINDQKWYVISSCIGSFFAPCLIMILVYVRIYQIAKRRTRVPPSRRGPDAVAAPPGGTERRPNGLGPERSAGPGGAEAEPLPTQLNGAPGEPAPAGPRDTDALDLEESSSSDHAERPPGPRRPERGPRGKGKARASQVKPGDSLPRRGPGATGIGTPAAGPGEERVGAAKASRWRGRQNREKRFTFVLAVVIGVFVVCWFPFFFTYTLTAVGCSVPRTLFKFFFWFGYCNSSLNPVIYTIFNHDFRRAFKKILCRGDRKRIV
# [2] = target: T2, Type-1 angiotensin II receptor (Homo sapiens, UniProt P30556)
# T2 sequence (P30556 whole entry): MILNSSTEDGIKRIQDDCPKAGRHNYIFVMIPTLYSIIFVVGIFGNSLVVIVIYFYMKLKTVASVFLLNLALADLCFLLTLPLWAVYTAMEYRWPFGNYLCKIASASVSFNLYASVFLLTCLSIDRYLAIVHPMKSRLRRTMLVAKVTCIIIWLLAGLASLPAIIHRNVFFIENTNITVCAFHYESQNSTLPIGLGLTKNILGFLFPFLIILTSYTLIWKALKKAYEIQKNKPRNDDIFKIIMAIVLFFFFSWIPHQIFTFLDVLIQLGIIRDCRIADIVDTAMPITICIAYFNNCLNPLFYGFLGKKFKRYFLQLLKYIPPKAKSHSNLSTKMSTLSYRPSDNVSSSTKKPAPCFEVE
# [3] = target: T3, 5-hydroxytryptamine receptor 2C (Homo sapiens, UniProt P28335)
# T3 sequence (P28335 whole entry): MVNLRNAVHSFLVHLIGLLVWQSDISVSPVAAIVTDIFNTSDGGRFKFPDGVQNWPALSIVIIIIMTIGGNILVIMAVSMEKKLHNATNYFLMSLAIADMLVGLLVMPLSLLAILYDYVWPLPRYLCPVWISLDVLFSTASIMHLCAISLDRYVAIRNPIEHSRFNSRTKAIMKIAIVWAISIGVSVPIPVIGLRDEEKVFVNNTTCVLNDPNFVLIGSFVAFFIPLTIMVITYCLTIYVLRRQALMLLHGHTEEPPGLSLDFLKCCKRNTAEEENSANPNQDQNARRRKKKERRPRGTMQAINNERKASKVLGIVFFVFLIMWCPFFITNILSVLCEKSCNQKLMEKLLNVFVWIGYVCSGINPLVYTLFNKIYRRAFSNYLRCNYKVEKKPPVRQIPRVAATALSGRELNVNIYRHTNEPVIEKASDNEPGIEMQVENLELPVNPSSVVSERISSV
# [4] = target: T4, 5-hydroxytryptamine receptor 1A (Homo sapiens, UniProt P08908); type: functional, cell-based
# T4 sequence (P08908 whole entry): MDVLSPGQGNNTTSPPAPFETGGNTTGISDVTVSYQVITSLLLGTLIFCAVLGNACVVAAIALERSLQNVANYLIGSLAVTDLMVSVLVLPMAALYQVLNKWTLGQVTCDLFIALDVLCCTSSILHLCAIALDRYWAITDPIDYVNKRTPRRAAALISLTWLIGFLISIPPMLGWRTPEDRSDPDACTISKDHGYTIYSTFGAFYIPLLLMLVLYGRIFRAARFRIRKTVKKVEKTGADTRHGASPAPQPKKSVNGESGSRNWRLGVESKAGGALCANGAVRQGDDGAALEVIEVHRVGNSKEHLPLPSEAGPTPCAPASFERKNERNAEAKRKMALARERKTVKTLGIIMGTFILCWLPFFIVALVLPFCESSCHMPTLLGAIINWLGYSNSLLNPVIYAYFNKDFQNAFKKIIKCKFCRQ
# [5] = target: T5, Estrogen receptor (Homo sapiens, UniProt P03372)
# T5 sequence (P03372 whole entry): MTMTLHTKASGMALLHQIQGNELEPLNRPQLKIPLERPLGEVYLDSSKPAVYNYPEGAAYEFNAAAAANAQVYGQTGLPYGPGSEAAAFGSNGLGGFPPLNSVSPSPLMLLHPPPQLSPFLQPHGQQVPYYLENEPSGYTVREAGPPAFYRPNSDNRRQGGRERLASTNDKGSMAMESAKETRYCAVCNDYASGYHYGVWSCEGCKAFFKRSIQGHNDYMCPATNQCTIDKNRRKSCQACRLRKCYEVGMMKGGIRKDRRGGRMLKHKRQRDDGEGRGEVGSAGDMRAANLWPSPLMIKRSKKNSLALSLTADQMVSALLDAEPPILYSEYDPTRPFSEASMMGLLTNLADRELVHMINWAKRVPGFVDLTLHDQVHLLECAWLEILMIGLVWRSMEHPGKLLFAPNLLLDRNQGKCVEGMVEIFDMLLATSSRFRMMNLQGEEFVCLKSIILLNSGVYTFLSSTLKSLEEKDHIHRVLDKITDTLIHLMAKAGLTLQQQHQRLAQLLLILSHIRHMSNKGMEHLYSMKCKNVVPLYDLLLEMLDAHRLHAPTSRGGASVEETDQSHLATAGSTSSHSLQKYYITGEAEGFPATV
# [6] = target: T6, 5-hydroxytryptamine receptor 3A (Homo sapiens, UniProt P46098); type: functional
# T6 sequence (P46098 whole entry): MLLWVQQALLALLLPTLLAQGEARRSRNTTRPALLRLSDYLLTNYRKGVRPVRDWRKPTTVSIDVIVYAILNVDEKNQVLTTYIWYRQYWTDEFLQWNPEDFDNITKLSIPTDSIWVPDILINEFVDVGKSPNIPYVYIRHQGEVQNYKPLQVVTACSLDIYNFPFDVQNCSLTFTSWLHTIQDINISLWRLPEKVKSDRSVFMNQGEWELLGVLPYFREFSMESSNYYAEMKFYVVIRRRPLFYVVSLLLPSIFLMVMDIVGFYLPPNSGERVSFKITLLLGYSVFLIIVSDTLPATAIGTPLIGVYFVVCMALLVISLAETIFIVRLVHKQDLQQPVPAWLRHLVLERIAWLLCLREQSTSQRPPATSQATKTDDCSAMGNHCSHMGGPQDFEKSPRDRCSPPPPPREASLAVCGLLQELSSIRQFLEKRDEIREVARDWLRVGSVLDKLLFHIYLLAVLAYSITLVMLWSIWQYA
# [7] = target: Voltage-dependent L-type calcium channel subunit alpha-1C (Rattus norvegicus, UniProt P22002); type: functional
# [8] = target: Delta-type opioid receptor (Homo sapiens, UniProt P41143)
# Further: assay procedure not described here.
# Chain of Voltage-dependent L-type calcium channel subunit alpha-1C (P22002 whole entry): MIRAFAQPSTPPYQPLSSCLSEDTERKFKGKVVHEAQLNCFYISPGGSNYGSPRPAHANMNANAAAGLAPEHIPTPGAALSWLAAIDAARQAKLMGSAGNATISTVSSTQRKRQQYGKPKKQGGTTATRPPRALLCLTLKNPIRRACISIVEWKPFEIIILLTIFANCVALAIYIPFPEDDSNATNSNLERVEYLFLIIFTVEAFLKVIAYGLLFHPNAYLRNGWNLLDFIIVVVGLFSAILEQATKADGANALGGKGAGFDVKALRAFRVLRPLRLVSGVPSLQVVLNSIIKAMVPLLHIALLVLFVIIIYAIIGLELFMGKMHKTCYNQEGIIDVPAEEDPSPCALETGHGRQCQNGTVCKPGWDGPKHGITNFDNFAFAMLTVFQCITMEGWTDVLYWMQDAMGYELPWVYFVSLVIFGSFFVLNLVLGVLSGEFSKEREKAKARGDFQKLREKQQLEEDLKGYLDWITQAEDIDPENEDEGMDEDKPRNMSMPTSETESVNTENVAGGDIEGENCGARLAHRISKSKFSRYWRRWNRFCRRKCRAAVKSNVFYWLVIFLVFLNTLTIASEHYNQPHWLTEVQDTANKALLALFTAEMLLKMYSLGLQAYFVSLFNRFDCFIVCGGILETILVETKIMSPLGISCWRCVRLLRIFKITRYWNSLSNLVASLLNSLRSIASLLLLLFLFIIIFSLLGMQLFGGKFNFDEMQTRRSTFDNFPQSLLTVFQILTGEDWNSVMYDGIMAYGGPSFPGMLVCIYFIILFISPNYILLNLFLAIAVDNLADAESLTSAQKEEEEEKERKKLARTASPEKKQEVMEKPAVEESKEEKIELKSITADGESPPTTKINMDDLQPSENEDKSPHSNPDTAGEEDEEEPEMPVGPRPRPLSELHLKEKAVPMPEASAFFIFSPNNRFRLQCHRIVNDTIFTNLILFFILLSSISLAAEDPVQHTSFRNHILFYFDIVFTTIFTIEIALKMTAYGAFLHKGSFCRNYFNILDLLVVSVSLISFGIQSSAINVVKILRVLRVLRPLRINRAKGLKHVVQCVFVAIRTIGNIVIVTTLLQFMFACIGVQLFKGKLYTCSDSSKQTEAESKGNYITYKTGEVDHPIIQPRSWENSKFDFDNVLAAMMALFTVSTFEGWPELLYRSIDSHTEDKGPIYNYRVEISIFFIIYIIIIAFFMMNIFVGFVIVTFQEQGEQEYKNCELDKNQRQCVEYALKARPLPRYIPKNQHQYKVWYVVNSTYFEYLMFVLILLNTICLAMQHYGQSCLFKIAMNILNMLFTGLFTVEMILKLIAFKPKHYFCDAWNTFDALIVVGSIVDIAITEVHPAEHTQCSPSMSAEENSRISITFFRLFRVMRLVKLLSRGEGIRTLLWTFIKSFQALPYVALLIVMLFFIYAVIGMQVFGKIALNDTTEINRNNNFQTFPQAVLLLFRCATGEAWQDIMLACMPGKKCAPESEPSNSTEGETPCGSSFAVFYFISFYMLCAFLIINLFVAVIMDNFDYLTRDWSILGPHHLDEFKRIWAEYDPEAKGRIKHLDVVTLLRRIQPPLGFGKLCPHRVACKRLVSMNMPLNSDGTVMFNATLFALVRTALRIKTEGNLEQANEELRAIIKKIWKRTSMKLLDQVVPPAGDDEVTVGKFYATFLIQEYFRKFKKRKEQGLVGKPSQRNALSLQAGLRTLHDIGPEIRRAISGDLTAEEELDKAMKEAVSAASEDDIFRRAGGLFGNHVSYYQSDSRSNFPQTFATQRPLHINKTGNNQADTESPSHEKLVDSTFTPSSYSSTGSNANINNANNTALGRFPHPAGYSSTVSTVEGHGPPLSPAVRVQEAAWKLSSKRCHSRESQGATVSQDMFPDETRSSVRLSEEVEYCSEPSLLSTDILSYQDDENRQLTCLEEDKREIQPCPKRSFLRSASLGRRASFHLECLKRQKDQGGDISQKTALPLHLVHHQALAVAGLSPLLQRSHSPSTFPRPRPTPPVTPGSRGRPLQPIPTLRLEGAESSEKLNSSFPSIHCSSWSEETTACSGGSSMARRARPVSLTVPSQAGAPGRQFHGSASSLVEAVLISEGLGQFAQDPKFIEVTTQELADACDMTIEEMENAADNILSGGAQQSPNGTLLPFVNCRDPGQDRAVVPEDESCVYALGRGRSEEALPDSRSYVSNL
# Chain of Delta-type opioid receptor (P41143 whole entry): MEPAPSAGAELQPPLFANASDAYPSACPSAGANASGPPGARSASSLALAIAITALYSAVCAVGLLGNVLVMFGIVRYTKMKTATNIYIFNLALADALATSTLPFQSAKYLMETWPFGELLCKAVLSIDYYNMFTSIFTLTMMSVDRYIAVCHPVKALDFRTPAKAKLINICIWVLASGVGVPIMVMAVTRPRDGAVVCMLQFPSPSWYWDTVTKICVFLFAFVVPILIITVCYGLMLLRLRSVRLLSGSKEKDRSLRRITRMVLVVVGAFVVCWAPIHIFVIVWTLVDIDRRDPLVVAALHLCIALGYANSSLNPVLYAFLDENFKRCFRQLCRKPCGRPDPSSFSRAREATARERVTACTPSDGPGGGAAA
SMILES,AC50 [1],AC50 [2],AC50 [3],AC50 [4],AC50 [5],AC50 [6],AC50 [7],AC50 [8]
CN[C@@H]1[C@H](O)[C@H](NC)[C@H]2O[C@@]3(O)C(=O)C[C@@H](C)O[C@H]3O[C@@H]2[C@H]1O [SPECTINOMYCIN],> 10 µM,> 10 µM,> 30 µM,> 30 µM,> 10 µM,> 30 µM,> 10 µM,> 30 µM
CN1CCC2=C(C1)C(c1ccccc1)c1ccccc12 (stereo unspecified) [PHENINDAMINE],> 10 µM,> 10 µM,> 30 µM,> 10 µM,> 30 µM,12 µM,> 10 µM,> 30 µM
